According to ChEMBL document CHEMBL1201862, “PubChem BioAssay data set” (2004):
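Assay format: 96-well plates, 48-hour exposure. At the GI50, growth is halved.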 Activity calls are given as the source filed them. No stated cut-off is given here; in the data, active = GI50 up to about 1.1 µM and inactive = higher.

Legend:
Assay in all cases: inhibition of tumour cell growth, NCI panel, 48 h
A549 = system: A549
CAKI-1 = system: CAKI-1
EKVX = system: EKVX
HCT-116 = system: HCT-116
HL-60 = system: HL-60
HOP-92 = system: HOP-92
LOX IMVI = system: LOX IMVI
MDA-N = system: MDA-N
MOLT-4 = system: MOLT-4
NCI-H226 = system: NCI-H226
NCI-H23 = system: NCI-H23
NCI-H460 = system: NCI-H460
SK-MEL-5 = system: SK-MEL-5
SN12C = system: SN12C
SNB-75 = system: SNB-75
SR = system: SR
SW-620 = system: SW-620
T47D = system: T47D
TK-10 = system: TK-10

Measured: GI50

Cc1ccc(S(=O)(=O)N2CCN(CCO)CCN(S(=O)(=O)c3ccc(C)cc3)CCN(CCO)CC2)cc1
inactive: A549 20.7 µM | CAKI-1 37.8 µM | EKVX 18.2 µM | HCT-116 15 µM | HL-60 18 µM | HOP-92 21.5 µM | LOX IMVI 13.6 µM | MDA-N 27.2 µM | MOLT-4 19.7 µM | NCI-H226 20.9 µM | NCI-H23 18.2 µM | NCI-H460 14.3 µM | SK-MEL-5 13.6 µM | SN12C 45 µM | SNB-75 26.3 µM | SR 12.3 µM | SW-620 33.7 µM | T47D 17.5 µM | TK-10 28.2 µM

Nc1nc(N)nc(CCCCc2nc(N)nc(N)n2)n1
inactive: A549 > 100 µM | CAKI-1 > 100 µM | EKVX > 100 µM | HCT-116 > 100 µM | HL-60 > 100 µM | HOP-92 > 100 µM | LOX IMVI > 100 µM | MDA-N > 100 µM | MOLT-4 > 100 µM | NCI-H226 > 100 µM | NCI-H23 > 100 µM | NCI-H460 > 100 µM | SK-MEL-5 > 100 µM | SN12C > 100 µM | SNB-75 > 100 µM | SR > 100 µM | SW-620 > 100 µM | T47D > 100 µM | TK-10 > 100 µM

CCCCC/C(=N\c1[nH]nnc1C(N)=O)OCC
inactive: A549 > 100 µM | CAKI-1 > 100 µM | EKVX > 100 µM | HCT-116 > 100 µM | HL-60 > 100 µM | HOP-92 26.2 µM | LOX IMVI > 100 µM | MDA-N > 100 µM | MOLT-4 > 100 µM | NCI-H226 > 100 µM | NCI-H23 > 100 µM | NCI-H460 > 100 µM | SK-MEL-5 > 100 µM | SN12C > 100 µM | SNB-75 > 100 µM | SR > 100 µM | SW-620 > 100 µM | T47D > 100 µM | TK-10 > 100 µM

c1ccc(-c2cc3[nH]c4ccccc4[nH]c-3cc(-c3ccccc3)nn2)cc1
inactive: A549 40.4 µM | CAKI-1 91.8 µM | EKVX > 100 µM | HCT-116 33.6 µM | HL-60 20.6 µM | HOP-92 > 100 µM | LOX IMVI 72.3 µM | MDA-N > 100 µM | MOLT-4 > 100 µM | NCI-H226 45.6 µM | NCI-H23 > 100 µM | NCI-H460 30 µM | SK-MEL-5 74.6 µM | SN12C > 100 µM | SNB-75 30.4 µM | SR 96.2 µM | SW-620 81.7 µM | T47D > 100 µM | TK-10 22.9 µM

Cc1cc(NS(=O)(=O)c2ccc(Nc3c4ccccc4nc4ccc(C(=O)Nc5ccc(S(=O)(=O)N=C(N)N)cc5)cc34)cc2)no1
inactive: A549 > 100 µM | CAKI-1 > 100 µM | EKVX > 100 µM | HCT-116 > 100 µM | HL-60 > 100 µM | HOP-92 > 100 µM | LOX IMVI > 100 µM | MDA-N > 100 µM | MOLT-4 > 100 µM | NCI-H226 > 100 µM | NCI-H23 > 100 µM | NCI-H460 > 100 µM | SK-MEL-5 > 100 µM | SN12C > 100 µM | SNB-75 > 100 µM | SR > 100 µM | SW-620 > 100 µM | T47D > 100 µM | TK-10 > 100 µM

CC1(C)OC(=O)N(c2ccccc2)C12C=Cc1cccc([N+](=O)[O-])c1O2 (stereo not given)
inactive: A549 79.1 µM | CAKI-1 > 100 µM | EKVX 60.8 µM | HCT-116 67 µM | HL-60 17.5 µM | HOP-92 > 100 µM | LOX IMVI 97.3 µM | MDA-N 42.5 µM | MOLT-4 15.1 µM | NCI-H226 > 100 µM | NCI-H23 55.3 µM | NCI-H460 > 100 µM | SK-MEL-5 72.8 µM | SN12C > 100 µM | SNB-75 35.6 µM | SR 9.18 µM | SW-620 > 100 µM | T47D 43.4 µM | TK-10 > 100 µM

CC1=CC(C)C(C)N(CCNS(=O)(=O)c2ccc(C)cc2)c2ccccc21 (stereo not given)
inactive: A549 19.4 µM | CAKI-1 20.4 µM | EKVX 16.4 µM | HCT-116 12.9 µM | HL-60 14 µM | HOP-92 18.8 µM | LOX IMVI 10.2 µM | MDA-N 12.5 µM | MOLT-4 12.2 µM | NCI-H226 12.3 µM | NCI-H23 13.6 µM | NCI-H460 12.8 µM | SK-MEL-5 > 10 µM | SN12C 12.6 µM | SNB-75 15.7 µM | SR 16 µM | SW-620 > 10 µM | T47D 10.8 µM | TK-10 30.5 µM

Cc1ccc(CNNC(=O)c2cc[n+]([BH2-]C#N)cc2)cc1
inactive: A549 95.7 µM | CAKI-1 > 100 µM | EKVX 87.7 µM | HCT-116 > 100 µM | HL-60 83.8 µM | HOP-92 > 100 µM | LOX IMVI > 100 µM | MDA-N > 100 µM | MOLT-4 71.3 µM | NCI-H226 > 100 µM | NCI-H23 > 100 µM | NCI-H460 > 100 µM | SK-MEL-5 > 100 µM | SN12C > 100 µM | SNB-75 72.6 µM | SR > 100 µM | SW-620 > 100 µM | T47D > 100 µM | TK-10 > 100 µM

Oc1cccc2ccc(SSc3ccc4cccc(O)c4n3)nc12
inactive: A549 31 µM | CAKI-1 18.5 µM | EKVX 29.3 µM | HCT-116 18.2 µM | HL-60 22.8 µM | HOP-92 23 µM | LOX IMVI 18.2 µM | MDA-N 17.5 µM | MOLT-4 9.59 µM | NCI-H226 > 100 µM | NCI-H23 16.9 µM | NCI-H460 19.3 µM | SK-MEL-5 33.5 µM | SN12C 17.9 µM | SNB-75 14.7 µM | SR 23.9 µM | SW-620 25.4 µM | T47D 13.2 µM | TK-10 20.1 µM

c1csc(-c2nccc3c2[nH]c2ccccc23)c1
inactive: A549 18.5 µM | CAKI-1 27.4 µM | EKVX 46.6 µM | HCT-116 16.3 µM | HL-60 29.3 µM | HOP-92 22.3 µM | LOX IMVI 20.5 µM | MDA-N 17.5 µM | MOLT-4 22.2 µM | NCI-H226 12 µM | NCI-H23 18.7 µM | NCI-H460 23.9 µM | SK-MEL-5 16.7 µM | SN12C 16.8 µM | SNB-75 14.1 µM | SR 21 µM | SW-620 21 µM | T47D 11.8 µM | TK-10 21.1 µM
